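Growth conditions: 96-well plates. Treatment: test compound, 48 hours, 5 concentrations. Analysis: linear interpolation between bracketing concentrations; unreached endpoints set to highest concentration. GI50 marks 50% less growth.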 Activity calls are given as the source filed them. Rule as the data show it: active = GI50 up to about 1.1 µM and inactive = higher.
Tests used:
Assay in all cases: NCI anticancer screen, dose series, 48 h
OVCAR-5 = test system: OVCAR-5
MDA-N = test system: MDA-N
M14 = test system: M14
MOLT-4 = test system: MOLT-4
NCI-H460 = test system: NCI-H460
UO-31 = test system: UO-31
SK-MEL-5 = test system: SK-MEL-5
TK-10 = test system: TK-10
OVCAR-8 = test system: OVCAR-8
HOP-92 = test system: HOP-92
IGROV-1 = test system: IGROV-1
T47D = test system: T47D
CCRF-CEM = test system: CCRF-CEM
SNB-75 = test system: SNB-75
BT-549 = test system: BT-549
UACC-62 = test system: UACC-62
SK-MEL-28 = test system: SK-MEL-28
MCF7 = test system: MCF7
SNB-19 = test system: SNB-19
Malme-3M = test system: Malme-3M
NCI-H522 = test system: NCI-H522
HCC 2998 = test system: HCC 2998
COLO 205 = test system: COLO 205
RXF 393 = test system: RXF 393
NCI-H226 = test system: NCI-H226
A498 = test system: A498
HOP-62 = test system: HOP-62
HT-29 = test system: HT-29
DU-145 = test system: DU-145
MDA-MB-435 = test system: MDA-MB-435
NCI-H23 = test system: NCI-H23
SR = test system: SR
HL-60 = test system: HL-60
SK-MEL-2 = test system: SK-MEL-2
Hs-578T = test system: Hs-578T
HCT-15 = test system: HCT-15
RPMI-8226 = test system: RPMI-8226
SN12C = test system: SN12C
NCI/ADR-RES = test system: NCI/ADR-RES
KM12 = test system: KM12
CAKI-1 = test system: CAKI-1
K562 = test system: K562
OVCAR-3 = test system: OVCAR-3
SK-OV-3 = test system: SK-OV-3
HCT-116 = test system: HCT-116
SF-295 = test system: SF-295
PC-3 = test system: PC-3
U-251 = test system: U-251
MDA-MB-231 = test system: MDA-MB-231
SW-620 = test system: SW-620
LOX IMVI = test system: LOX IMVI
ACHN = test system: ACHN
786-0 = test system: 786-0
UACC-257 = test system: UACC-257
A549 = test system: A549
EKVX = test system: EKVX
OVCAR-4 = test system: OVCAR-4
SF-268 = test system: SF-268
SF-539 = test system: SF-539

O=C(N/N=C(/c1ccccc1)C(F)(F)F)c1ccncc1
GI50 (OVCAR-5): > 100 µM (inactive) | GI50 (MDA-N): > 100 µM (inactive) | GI50 (M14): > 100 µM (inactive) | GI50 (MOLT-4): 64.3 µM (inactive) | GI50 (NCI-H460): > 100 µM (inactive) | GI50 (UO-31): > 100 µM (inactive) | GI50 (SK-MEL-5): > 100 µM (inactive) | GI50 (TK-10): > 100 µM (inactive) | GI50 (OVCAR-8): > 100 µM (inactive) | GI50 (HOP-92): > 100 µM (inactive) | GI50 (IGROV-1): > 100 µM (inactive) | GI50 (T47D): > 100 µM (inactive) | GI50 (CCRF-CEM): 76 µM (inactive) | GI50 (SNB-75): > 100 µM (inactive) | GI50 (BT-549): > 100 µM (inactive) | GI50 (UACC-62): > 100 µM (inactive) | GI50 (SK-MEL-28): > 100 µM (inactive) | GI50 (MCF7): > 100 µM (inactive) | GI50 (SNB-19): > 100 µM (inactive) | GI50 (Malme-3M): > 100 µM (inactive) | GI50 (NCI-H522): > 100 µM (inactive) | GI50 (HCC 2998): > 100 µM (inactive) | GI50 (COLO 205): > 100 µM (inactive) | GI50 (RXF 393): 0.923 µM (active) | GI50 (NCI-H226): > 100 µM (inactive) | GI50 (A498): > 100 µM (inactive) | GI50 (HOP-62): > 100 µM (inactive) | GI50 (HT-29): > 100 µM (inactive) | GI50 (DU-145): > 100 µM (inactive) | GI50 (MDA-MB-435): > 100 µM (inactive) | GI50 (NCI-H23): > 100 µM (inactive) | GI50 (SR): > 100 µM (inactive) | GI50 (HL-60): > 100 µM (inactive) | GI50 (SK-MEL-2): > 100 µM (inactive) | GI50 (Hs-578T): > 100 µM (inactive) | GI50 (HCT-15): > 100 µM | GI50 (RPMI-8226): > 100 µM (inactive) | GI50 (SN12C): > 100 µM (inactive) | GI50 (NCI/ADR-RES): > 100 µM (inactive) | GI50 (KM12): > 100 µM (inactive) | GI50 (CAKI-1): > 100 µM (inactive) | GI50 (K562): 35.1 µM (inactive) | GI50 (OVCAR-3): > 100 µM (inactive) | GI50 (SK-OV-3): > 100 µM (inactive) | GI50 (HCT-116): > 100 µM (inactive) | GI50 (SF-295): > 100 µM (inactive) | GI50 (PC-3): > 100 µM (inactive) | GI50 (U-251): > 100 µM (inactive)

CCC1(O)CC(CCN(Cc2ccccc2)C(=O)OCc2ccccc2)C(OCc2ccccc2)C1O (stereo not given)
GI50 (OVCAR-5): 17.7 µM (inactive) | GI50 (MDA-N): 26.8 µM (inactive) | GI50 (MDA-MB-231): 27.2 µM (inactive) | GI50 (SW-620): 36.1 µM (inactive) | GI50 (LOX IMVI): 21.9 µM (inactive) | GI50 (M14): 15.5 µM (inactive) | GI50 (MOLT-4): 1.93 µM (inactive) | GI50 (NCI-H460): 13.4 µM (inactive) | GI50 (UO-31): 16.2 µM (inactive) | GI50 (SK-MEL-5): 15.1 µM (inactive) | GI50 (TK-10): 16.5 µM (inactive) | GI50 (OVCAR-8): 15.6 µM (inactive) | GI50 (IGROV-1): 20.4 µM (inactive) | GI50 (T47D): 12.2 µM (inactive) | GI50 (CCRF-CEM): 16.1 µM (inactive) | GI50 (SNB-75): 12.5 µM (inactive) | GI50 (BT-549): 13 µM (inactive) | GI50 (UACC-62): 12.9 µM (inactive) | GI50 (SK-MEL-28): 15.7 µM (inactive) | GI50 (MCF7): 6.38 µM (inactive) | GI50 (SNB-19): 15.6 µM (inactive) | GI50 (NCI-H522): 10.1 µM (inactive) | GI50 (HCC 2998): 14 µM (inactive) | GI50 (COLO 205): 16.2 µM (inactive) | GI50 (RXF 393): 16.3 µM (inactive) | GI50 (NCI-H226): 10.7 µM (inactive) | GI50 (ACHN): 17 µM (inactive) | GI50 (786-0): 17.2 µM (inactive) | GI50 (HOP-62): 14.5 µM (inactive) | GI50 (HT-29): 15.3 µM (inactive) | GI50 (DU-145): 18.5 µM (inactive) | GI50 (MDA-MB-435): 18.4 µM (inactive) | GI50 (NCI-H23): 14 µM (inactive) | GI50 (SR): 12.2 µM (inactive) | GI50 (UACC-257): 16.1 µM (inactive) | GI50 (SK-MEL-2): 14.4 µM (inactive) | GI50 (A549): 9.93 µM (inactive) | GI50 (HCT-15): 13.4 µM | GI50 (SN12C): 24.4 µM (inactive) | GI50 (NCI/ADR-RES): 10.8 µM (inactive) | GI50 (KM12): 12.7 µM (inactive) | GI50 (CAKI-1): 25.3 µM (inactive) | GI50 (EKVX): 15.7 µM (inactive) | GI50 (K562): 4.69 µM (inactive) | GI50 (OVCAR-3): 13 µM (inactive) | GI50 (SK-OV-3): 17.4 µM (inactive) | GI50 (HCT-116): 17.5 µM (inactive) | GI50 (SF-295): 11.1 µM (inactive) | GI50 (OVCAR-4): 7.66 µM (inactive) | GI50 (PC-3): 10.7 µM (inactive) | GI50 (U-251): 27.9 µM (inactive)

CCOc1cc(NC(C)=O)ccc1C(=O)NNS(=O)(=O)c1ccc(NC(C)=O)cc1
GI50 (OVCAR-5): > 100 µM (inactive) | GI50 (MDA-N): 16.7 µM (inactive) | GI50 (SW-620): 39.2 µM (inactive) | GI50 (LOX IMVI): 55.7 µM (inactive) | GI50 (M14): 56 µM (inactive) | GI50 (MOLT-4): 37.2 µM (inactive) | GI50 (NCI-H460): 39.6 µM (inactive) | GI50 (UO-31): 62.4 µM (inactive) | GI50 (SK-MEL-5): 22.3 µM (inactive) | GI50 (OVCAR-8): 69.3 µM (inactive) | GI50 (SF-268): 88.7 µM (inactive) | GI50 (HOP-92): 61.9 µM (inactive) | GI50 (IGROV-1): 43.9 µM (inactive) | GI50 (T47D): > 100 µM (inactive) | GI50 (CCRF-CEM): 38.9 µM (inactive) | GI50 (SNB-75): 72.9 µM (inactive) | GI50 (BT-549): > 100 µM (inactive) | GI50 (UACC-62): 57.3 µM (inactive) | GI50 (SK-MEL-28): 99.1 µM (inactive) | GI50 (MCF7): 40.6 µM (inactive) | GI50 (SNB-19): 77.4 µM (inactive) | GI50 (Malme-3M): 86.7 µM (inactive) | GI50 (NCI-H522): 37.4 µM (inactive) | GI50 (HCC 2998): > 100 µM (inactive) | GI50 (SF-539): 33.2 µM (inactive) | GI50 (COLO 205): 24.7 µM (inactive) | GI50 (RXF 393): 76.7 µM (inactive) | GI50 (NCI-H226): 25.2 µM (inactive) | GI50 (A498): 51.8 µM (inactive) | GI50 (ACHN): > 100 µM (inactive) | GI50 (786-0): 42.3 µM (inactive) | GI50 (HOP-62): 63.5 µM (inactive) | GI50 (HT-29): 47.8 µM (inactive) | GI50 (DU-145): > 100 µM (inactive) | GI50 (MDA-MB-435): 27.9 µM (inactive) | GI50 (NCI-H23): 97.3 µM (inactive) | GI50 (SR): 13.6 µM (inactive) | GI50 (UACC-257): > 100 µM (inactive) | GI50 (HL-60): 22.8 µM (inactive) | GI50 (SK-MEL-2): 28.8 µM (inactive) | GI50 (A549): 72.8 µM (inactive) | GI50 (Hs-578T): 41.7 µM (inactive) | GI50 (HCT-15): 53.6 µM | GI50 (RPMI-8226): 31.7 µM (inactive) | GI50 (SN12C): 46.5 µM (inactive) | GI50 (NCI/ADR-RES): 69.8 µM (inactive) | GI50 (KM12): 41.5 µM (inactive) | GI50 (CAKI-1): 54.6 µM (inactive) | GI50 (EKVX): 56 µM (inactive) | GI50 (K562): 38 µM (inactive) | GI50 (OVCAR-3): 34.6 µM (inactive) | GI50 (SK-OV-3): 50.9 µM (inactive) | GI50 (HCT-116): 44.1 µM (inactive) | GI50 (SF-295): 39.4 µM (inactive) | GI50 (OVCAR-4): 73.6 µM (inactive) | GI50 (PC-3): 46.7 µM (inactive)

Reference: ChEMBL document CHEMBL1201862, “PubChem BioAssay data set” (2004)
